Laboratory results: US12460050B2, “Nitric oxide-releasing hyperbranched compounds as antibacterial scaffolds and methods pertaining thereto” (The University of North Carolina at Chapel Hill, priority 2017, dated 2025)

Tested on: Human gingival fibroblasts (HGF-1)
Test: In vitro cytotoxicity (MTS) of PAMAM scaffolds
Assay type: cell-based
Protocol: The toxicity of the PAMAM scaffolds to human gingival fibroblasts (HGF-1) was evaluated after 2 and 24 h exposure times. Human gingival fibroblasts (HGF-1) were grown in FibroLife fibroblast serum-free media, and incubated in 5 vol % CO2 under humidified conditions at 37° C. The cells were trypsinized at 80% confluency and seeded into tissue culture-treated polystyrene 96-well plates at a density of 10^4 cells/well. The plates were incubated for an additional 24 h at 37° C. The supernatant was aspirated and replaced with 100 μL of fresh growth medium containing various concentrations of PAMAM scaffolds. After two incubation time points (i.e., 2 and 24 h) at 37° C., the supernatant was aspirated, and the cells were washed with DPBS. A 100 μL solution of media/MTS/PMS (105/20/1, v/v/v) solution was added to each well, and incubated for 3 h at 37° C. The absorbance of the colored supernatant was quantified at 490 nm using a Thermoscientific Multiskan EX plate reader (Waltham, MA). Measurements for untreated cells (control) and media/MTS/PMS mixture (blank) were also collected. Results were expressed as percentage of relative cell viability as follows: % cell viability=[(Abs490−Absblank)□/(Abscontrol−Absblank)]×100% (Eq. 1)
A killing curve was constructed for NO-releasing and control PAMAM scaffolds by plotting % cell viability versus concentration (mg mL^−).

## Hyperbranched polyamidoamine [h-PAMAM]
  toxicity to HGF-1 (in words): most toxic
